Measurements taken from ChEMBL document CHEMBL5338756, “Dual-Acting Small Molecules: Subtype-Selective Cannabinoid Receptor 2 Agonist/Butyrylcholinesterase Inhibitor Hybrids Show Neuroprotection in an Alzheimer's Disease Mouse Model” (J Med Chem, 2023).
Where “and” joins values, the source holds several entries; their conditions need not be identical. Equal entries are not always repeated.

Experiments:
[1] = molecular target: Cannabinoid receptor 1 (Rattus norvegicus) (UniProt P20272); assay: Displacement of [3H]CP55940 from rat brain membrane CB1 receptor at 10 uM incubated for 3 hrs by scintillation counter analysis relative to control; format: cell membranes
Cannabinoid receptor 1 (Rattus norvegicus), sequence (P20272 whole entry): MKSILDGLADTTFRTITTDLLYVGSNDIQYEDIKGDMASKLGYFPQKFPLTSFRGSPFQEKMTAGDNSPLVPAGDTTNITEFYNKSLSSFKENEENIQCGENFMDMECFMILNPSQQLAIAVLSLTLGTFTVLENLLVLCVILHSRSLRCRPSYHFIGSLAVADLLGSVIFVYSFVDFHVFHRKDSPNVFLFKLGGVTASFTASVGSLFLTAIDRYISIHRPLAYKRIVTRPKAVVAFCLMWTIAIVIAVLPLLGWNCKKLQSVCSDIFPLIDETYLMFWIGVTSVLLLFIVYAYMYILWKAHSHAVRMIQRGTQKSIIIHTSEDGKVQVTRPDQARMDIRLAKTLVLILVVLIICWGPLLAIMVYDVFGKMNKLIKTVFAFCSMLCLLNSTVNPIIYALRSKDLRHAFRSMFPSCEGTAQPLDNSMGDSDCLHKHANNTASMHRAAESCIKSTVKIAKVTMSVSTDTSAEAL

Cholinesterase [2] = molecular target: T1, Cholinesterase (Homo sapiens, UniProt P06276)
T1 sequence (P06276 whole entry): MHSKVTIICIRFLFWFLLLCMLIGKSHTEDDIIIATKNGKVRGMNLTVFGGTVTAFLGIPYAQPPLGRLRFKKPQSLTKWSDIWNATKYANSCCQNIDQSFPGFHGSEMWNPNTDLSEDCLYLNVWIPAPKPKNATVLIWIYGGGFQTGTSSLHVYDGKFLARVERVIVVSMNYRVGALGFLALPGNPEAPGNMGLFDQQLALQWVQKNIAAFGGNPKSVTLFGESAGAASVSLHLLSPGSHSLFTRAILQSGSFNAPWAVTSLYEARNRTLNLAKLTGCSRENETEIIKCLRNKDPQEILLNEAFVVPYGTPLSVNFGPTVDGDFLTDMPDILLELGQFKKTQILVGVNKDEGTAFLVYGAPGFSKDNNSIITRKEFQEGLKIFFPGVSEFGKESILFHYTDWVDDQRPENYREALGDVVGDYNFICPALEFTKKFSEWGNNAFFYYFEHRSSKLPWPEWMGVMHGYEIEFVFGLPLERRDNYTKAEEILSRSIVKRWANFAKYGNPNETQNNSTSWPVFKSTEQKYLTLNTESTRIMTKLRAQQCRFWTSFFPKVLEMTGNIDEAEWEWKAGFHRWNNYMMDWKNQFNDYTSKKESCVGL

Acetylcholinesterase [3] = molecular target: T2, Acetylcholinesterase (Homo sapiens, UniProt P22303)
T2 sequence (P22303 whole entry): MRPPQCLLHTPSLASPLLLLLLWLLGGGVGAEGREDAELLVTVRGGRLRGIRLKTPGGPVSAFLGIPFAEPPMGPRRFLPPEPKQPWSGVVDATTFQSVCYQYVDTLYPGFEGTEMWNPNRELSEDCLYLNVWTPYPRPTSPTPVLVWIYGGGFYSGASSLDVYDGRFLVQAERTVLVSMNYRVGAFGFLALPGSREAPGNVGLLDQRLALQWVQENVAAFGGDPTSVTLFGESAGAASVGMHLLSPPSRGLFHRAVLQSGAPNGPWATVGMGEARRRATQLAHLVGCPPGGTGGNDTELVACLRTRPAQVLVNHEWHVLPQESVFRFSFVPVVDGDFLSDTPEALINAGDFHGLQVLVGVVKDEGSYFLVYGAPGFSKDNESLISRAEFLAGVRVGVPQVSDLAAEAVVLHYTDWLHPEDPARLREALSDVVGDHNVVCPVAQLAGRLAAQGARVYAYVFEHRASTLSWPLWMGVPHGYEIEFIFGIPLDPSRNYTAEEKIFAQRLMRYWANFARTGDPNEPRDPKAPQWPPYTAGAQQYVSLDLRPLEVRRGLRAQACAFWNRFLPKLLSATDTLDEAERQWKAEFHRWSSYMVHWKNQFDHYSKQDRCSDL

Cannabinoid receptor 2 [4] = molecular target: T3, Cannabinoid receptor 2 (Homo sapiens, UniProt P34972)
T3 sequence (P34972 whole entry): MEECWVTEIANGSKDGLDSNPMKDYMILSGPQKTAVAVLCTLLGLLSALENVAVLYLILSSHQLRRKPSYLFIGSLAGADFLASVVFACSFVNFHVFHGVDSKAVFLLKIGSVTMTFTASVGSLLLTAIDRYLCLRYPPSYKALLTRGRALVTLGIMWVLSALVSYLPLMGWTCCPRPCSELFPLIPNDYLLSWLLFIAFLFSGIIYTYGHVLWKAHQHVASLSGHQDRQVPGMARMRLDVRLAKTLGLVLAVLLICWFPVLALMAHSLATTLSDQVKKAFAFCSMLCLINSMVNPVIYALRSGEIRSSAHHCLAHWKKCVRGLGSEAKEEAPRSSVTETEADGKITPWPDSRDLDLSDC
Description: Displacement of [3H]CP55940 from human CB2 receptor expressed in HEK293 cell membrane incubated for 3 hrs by scintillation counter analysis

Cholinesterase [5] = molecular target: T1, Cholinesterase; remark: listed apart in the source
Cannabinoid receptor 2 [6] = molecular target: T3, Cannabinoid receptor 2; assay: biochemical
Description: Displacement of [3H]CP55940 from human CB2 receptor stably expressed in HEK293 cells by Cheng-Prusoff equation analysis

Mus musculus [7] = assay: (§1) Synergistic neuroprotective activity against amyloid beta (25 to 35) induced Alzheimer's disease Swiss mouse model assessed as combination index at 0.1 to 1 mg/kg, ip administered once daily for day 1 to day 7 […] and measured on day 9 and 10 in presence of 2-benzyl-N,N-diethyl-1-isopentyl-1H-benzo[d]imidazole-5-carboxamide by step-through passive avoidance test; format: functional; details: dose 0.1-1 mg/kg
Mus musculus [8] = assay: as §1, with “0.1” for “0.1 to 1”, “8” for “9 and 10”, “spontaneous alternation performance” for “step-through passive avoidance”; format: functional
Acetylcholinesterase [9] = molecular target: T2, Acetylcholinesterase; remark: listed apart in the source
Cannabinoid receptor 2 [10] = molecular target: T3, Cannabinoid receptor 2; assay: Displacement of [3H]CP55940 from human CB2 receptor expressed in HEK293 cell membrane at 10 uM incubated for 3 hrs by scintillation counter analysis relative to control; format: cell membranes
Cannabinoid receptor 2 [11] = molecular target: T3, Cannabinoid receptor 2; assay: Agonist activity at human CB2 receptor stably expressed in CHO-K1 cells co-expressing Galphaq16 by Fluo-4AM dye based calcium mobilization assay relative to CP55940; format: functional, cell-based
Cannabinoid receptor 2 [12] = molecular target: T3, Cannabinoid receptor 2; assay: Agonist activity at human CB2 receptor stably expressed in HEK293 cells assessed as induction of beta-arrestin 2 recruitment at 10 uM incubated for 2 hrs by luminescence based assay relative to CP55940; format: functional, cell-based; details: filed as agonist
Cannabinoid receptor 2 [13] = molecular target: T3, Cannabinoid receptor 2; remark: listed apart in the source
Cannabinoid receptor 2 [14] = molecular target: T3, Cannabinoid receptor 2; remark: listed apart in the source
Description: Agonist activity at human CB2 receptor stably expressed in HEK293 cells assessed as induction of beta-arrestin 2 recruitment incubated for 2 hrs by luminescence based assay

## CCN(CC)C(=O)c1ccc2c(c1)nc(Cc1ccc(OC(=O)N(C)c3ccccc3)cc1)n2CCC(C)C
[1]
  Activity: 25%
Cholinesterase [2]
  IC50: 10100 nM
Acetylcholinesterase [3]
  IC50: 3460 nM
Cannabinoid receptor 2 [4]
  IC50: 3850 nM

## CCN(CC)C(=O)c1ccc2c(c1)nc(Cc1ccc(O)cc1)n2CCC(C)C
[1]
  Activity: 10%
Cholinesterase [2]
  IC50: > 25100 nM
Cannabinoid receptor 2 [4]
  IC50: 2210 nM

## CC(C)(C)OC(=O)NCCOCCOc1ccc(-c2cc(=O)c3ccccc3o2)cc1
Cholinesterase [5]
  IC50: 2 nM
Cannabinoid receptor 2 [6]
  Ki: 4500 nM

## CCN(C)C(=O)Oc1ccc(Cc2nc3cc(C(=O)N(CC)CC)ccc3n2CCC(C)C)cc1
[1]; filed as agonist
  Activity: 40%
Cholinesterase [2]
  IC50: 330 nM
Acetylcholinesterase [3]
  IC50: > 25100 nM
Cannabinoid receptor 2 [4]
  IC50: 11000 nM

## CC(C)(C)OC(=O)NCCOCCOc1ccc(-c2cc(=O)c3c(OCc4ccccc4)cccc3o2)cc1
Cholinesterase [5]
  IC50: 1780 nM
Cannabinoid receptor 2 [6]
  Ki: 2000 nM

## Cc1cc([N+](=O)[O-])c2oc(-c3ccc(OCCOCCNC(=O)OC(C)(C)C)cc3)cc(=O)c2c1
Mus musculus [7]
  CI: 0.65
Mus musculus [8]
  CI: 0.49
Cholinesterase [5]
  IC50: 1600 nM
Cannabinoid receptor 2 [6]
  Ki: 764 nM

## O=c1cc(-c2ccc(O)cc2)oc2ccccc12
Cholinesterase [5]
  IC50: 304 nM
Acetylcholinesterase [9]
  IC50: 1500 nM

## CCNC(=O)Oc1ccc(Cc2nc3cc(C(=O)N(CC)CC)ccc3n2CCC(C)C)cc1
Cannabinoid receptor 2 [10]
  Activity: 19%
[1]
  Activity: 37%
Cholinesterase [2]
  IC50: 810 nM
Acetylcholinesterase [3]
  IC50: > 25100 nM

## CCN(CC)C(=O)Oc1ccc(Cc2nc3cc(C(=O)N(CC)CC)ccc3n2CCC(C)C)cc1
Cannabinoid receptor 2 [10]
  Activity: < 10%
[1]; filed as agonist
  Activity: 43%
Cholinesterase [2]
  IC50: 4220 nM
Acetylcholinesterase [3]
  IC50: > 25100 nM

## CCN(CC)C(=O)c1ccc2c(c1)nc(Cc1ccc(OC(=O)N(C)C)cc1)n2CCC(C)C
[1]
  Activity: < 10%
Cannabinoid receptor 2 [11]; filed as agonist
  Emax: 42%
Cannabinoid receptor 2 [12]
  Emax: 79%
Cholinesterase [2]
  IC50: 620 nM
Acetylcholinesterase [3]
  IC50: 8660 nM
Cannabinoid receptor 2 [4]
  IC50: 780 nM
Cannabinoid receptor 2 [13]
  EC50: 244 nM
Cannabinoid receptor 2 [14]
  EC50: 82 nM

## CCOc1ccc(Cc2nc3cc(O)ccc3n2CCC(C)C)cc1
[1]
  Activity: 19%
Acetylcholinesterase [3]
  IC50: > 25100 nM
Cannabinoid receptor 2 [4]
  IC50: 5530 nM

## CCOc1ccc(Cc2nc3cc(OC(=O)N(C)C)ccc3n2CCC(C)C)cc1
[1]; filed as agonist
  Activity: 57%
Cholinesterase [2]
  IC50: > 25100 nM
Acetylcholinesterase [3]
  IC50: > 25100 nM
Cannabinoid receptor 2 [4]
  IC50: 1190 nM

## NCCOCCOc1ccc(-c2cc(=O)c3ccccc3o2)cc1
Cholinesterase [5]
  IC50: 13400 nM
Cannabinoid receptor 2 [6]
  Ki: 20 nM

## CCN(CC)C(=O)c1ccc2c(c1)nc(Cc1ccccc1)n2CCC(C)C
Cholinesterase [2]
  IC50: 50 nM
Acetylcholinesterase [3]
  IC50: > 25100 nM
Cholinesterase [5]
  IC50: 6.4 nM
Acetylcholinesterase [9]
  IC50: 3800 nM

## CCOc1ccc(Cc2nc3cc(OC(=O)NC4CC4)ccc3n2CCC(C)C)cc1
[1]
  Activity: 22%
Cholinesterase [2]
  IC50: 1350 nM
Acetylcholinesterase [3]
  IC50: > 25100 nM
Cannabinoid receptor 2 [4]
  IC50: 1010 nM

## CCOc1ccc(Cc2nc3cc(OC(=O)N4CCC4)ccc3n2CCC(C)C)cc1
[1]; filed as agonist
  Activity: 41%
Cannabinoid receptor 2 [11]; filed as agonist
  Emax: 68%
Cholinesterase [2]
  IC50: 150 nM
Acetylcholinesterase [3]
  IC50: > 25100 nM
Cannabinoid receptor 2 [4]
  IC50: 1020 nM
Cannabinoid receptor 2 [13]
  EC50: 1300 nM
Cannabinoid receptor 2 [14]
  EC50: 42.6 nM

## Cc1c(C(=O)NN2CCCCC2)nn(-c2ccc(Cl)cc2Cl)c1-c1ccc(Cl)cc1
Cannabinoid receptor 2 [10]
  Activity: < 10%

## CCN(CC)C(=O)c1ccc2c(c1)nc(Cc1ccc(OC(=O)N(C)Cc3ccccc3)cc1)n2CCC(C)C
[1]; filed as agonist
  Activity: 51%
Cholinesterase [2]
  IC50: 390 nM
Acetylcholinesterase [3]
  IC50: 9010 nM
Cannabinoid receptor 2 [4]
  IC50: 2600 nM

## CCN(CC)C(=O)c1ccc2c(c1)nc(Cc1ccc(OC(=O)NC3CC3)cc1)n2CCC(C)C
Cannabinoid receptor 2 [10]; filed as agonist
  Activity: 50%
[1]
  Activity: 32%
Cholinesterase [2]
  IC50: 70 nM and 79.4 nM
Acetylcholinesterase [3]
  IC50: > 25100 nM

## O=c1cc(-c2ccc(O)cc2)oc2cccc(OCc3ccccc3)c12
Cholinesterase [5]
  IC50: 6.9 nM
Acetylcholinesterase [9]
  IC50: 711 nM

## CCOc1ccc(Cc2nc3cc(OC(=O)N(C)CC)ccc3n2CCC(C)C)cc1
[1]; filed as agonist
  Activity: 80%
Cholinesterase [2]
  IC50: 2900 nM
Acetylcholinesterase [3]
  IC50: > 25100 nM
Cannabinoid receptor 2 [4]
  IC50: 580 nM

## CCOc1ccc(Cc2nc3cc(OC(=O)N4CCCC4)ccc3n2CCC(C)C)cc1
[1]; filed as agonist
  Activity: 49%
Cholinesterase [2]
  IC50: 3580 nM and 3160 nM
Acetylcholinesterase [3]
  IC50: > 25100 nM
Cannabinoid receptor 2 [4]
  IC50: 1520 nM

## CCN(CC)C(=O)c1ccc2c(c1)nc(Cc1ccc(OC(=O)NCc3ccccc3)cc1)n2CCC(C)C
[1]
  Activity: < 10%
Cannabinoid receptor 2 [11]
  Emax: 22%
Cholinesterase [2]
  IC50: 190 nM
Acetylcholinesterase [3]
  IC50: 4500 nM and 3980 nM
Cannabinoid receptor 2 [4]
  IC50: 11000 nM
Cannabinoid receptor 2 [13]
  EC50: 7710 nM

## CCN(CC)C(=O)c1ccc2c(c1)nc(Cc1ccc(OC(=O)NC)cc1)n2CCC(C)C
Cannabinoid receptor 2 [10]
  Activity: 33%

## CCCN(C)C(=O)Oc1ccc(Cc2nc3cc(C(=O)N(CC)CC)ccc3n2CCC(C)C)cc1
[1]; filed as agonist
  Activity: 46%
Cholinesterase [2]
  IC50: 1060 nM
Acetylcholinesterase [3]
  IC50: > 25100 nM
